# Paper PMC5500234 (Chemistry (Weinheim an der Bergstrasse, Germany), 2016)
# Molecular target: LeuT (bacterial leucine transporter) (Aquifex aeolicus, UniProt O67854)
# Experiment: scintillation proximity assay
# Format: binding
# Conditions: labelled compound; room temperature, […] days; DDM or MNA-C12/C13/C14
compound,measurement,value
CC(C)C[C@H](N)C(=O)O [[3H]-leucine],"scintillation proximity assay (SPA), radioligand binding",measuring the ability to bind [^3H]-leucine via scintillation proximity assay (SPA)
